This is an account of results in ChEMBL document CHEMBL4052645, “Discovery of potent and efficacious pyrrolopyridazines as dual JAK1/3 inhibitors” (Bioorg Med Chem Lett, 2017).

The target of experiment [1] is Tyrosine-protein kinase JAK1 (Homo sapiens, UniProt P23458). In words: Inhibition of GST-tagged JAK1 (unknown origin) after 3 hrs by Caliper assay.
For experiment [2], the target named is Non-receptor tyrosine-protein kinase TYK2 (Homo sapiens, UniProt P29597). In words: Inhibition of His-tagged TYK2 (unknown origin) after 3 hrs by Caliper assay.
Experiment [3] has as its target T1, Tyrosine-protein kinase JAK3 (Homo sapiens, UniProt P52333).
T1 sequence (P52333 whole entry): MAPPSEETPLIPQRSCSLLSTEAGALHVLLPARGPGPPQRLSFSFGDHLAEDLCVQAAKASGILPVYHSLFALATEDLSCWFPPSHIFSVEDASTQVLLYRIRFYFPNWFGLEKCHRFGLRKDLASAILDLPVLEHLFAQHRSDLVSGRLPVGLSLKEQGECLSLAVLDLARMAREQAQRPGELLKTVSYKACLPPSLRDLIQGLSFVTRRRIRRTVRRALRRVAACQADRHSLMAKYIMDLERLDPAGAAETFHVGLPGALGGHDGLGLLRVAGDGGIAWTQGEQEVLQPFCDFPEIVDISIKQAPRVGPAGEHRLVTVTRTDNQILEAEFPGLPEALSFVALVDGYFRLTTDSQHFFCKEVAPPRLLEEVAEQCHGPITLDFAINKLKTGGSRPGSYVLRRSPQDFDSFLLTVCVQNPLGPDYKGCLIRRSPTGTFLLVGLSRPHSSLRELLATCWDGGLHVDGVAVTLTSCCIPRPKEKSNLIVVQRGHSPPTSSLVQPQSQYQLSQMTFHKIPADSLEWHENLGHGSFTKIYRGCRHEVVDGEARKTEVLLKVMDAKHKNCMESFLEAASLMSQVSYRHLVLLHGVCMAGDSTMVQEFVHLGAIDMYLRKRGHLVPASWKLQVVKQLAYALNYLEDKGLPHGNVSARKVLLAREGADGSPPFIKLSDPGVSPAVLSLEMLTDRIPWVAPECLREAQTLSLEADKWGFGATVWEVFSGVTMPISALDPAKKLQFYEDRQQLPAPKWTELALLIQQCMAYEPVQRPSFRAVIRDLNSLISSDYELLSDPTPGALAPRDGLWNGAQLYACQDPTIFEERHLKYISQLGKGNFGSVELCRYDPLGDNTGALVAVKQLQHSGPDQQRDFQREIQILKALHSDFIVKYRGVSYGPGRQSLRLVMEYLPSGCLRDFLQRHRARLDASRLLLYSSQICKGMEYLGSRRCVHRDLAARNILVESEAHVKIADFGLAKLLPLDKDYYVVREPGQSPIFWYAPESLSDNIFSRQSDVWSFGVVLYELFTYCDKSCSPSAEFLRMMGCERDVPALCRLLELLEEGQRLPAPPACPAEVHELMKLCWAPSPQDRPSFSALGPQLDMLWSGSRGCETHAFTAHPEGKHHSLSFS
In words: Inhibition of JAK3 (unknown origin) using CSKtide as substrate after 30 mins in presence of [gamma33P]ATP by liquid scintillation counting method.

The target of experiment [4] is Tyrosine-protein kinase JAK2 (Homo sapiens, UniProt O60674). In words: Inhibition of GST-tagged JAK2 (unknown origin) after 3 hrs by Caliper assay.
The nature of experiment [5]: Selectivity ratio of IC50 for JAK2 dependent EPO-induced STAT5A phosphorylation in human TF1 cells to IC50 for JAK1/JAK3 dependent IL2-induced STAT3 phosphorylation in human PBMC derived T-cells.
For experiment [6], the target named is JAK3/JAK1 (Homo sapiens, UniProt P23458+P52333). In words: Inhibition of JAK1/JAK3 in human whole blood assessed as reduction in IL-2 induced IFN-gamma production after 18 hrs by ELISA. Format: protein-complex assay.
Experiment [7] concerns the target Voltage-gated inwardly rectifying potassium channel KCNH2 (Homo sapiens, UniProt Q12809). In words: Inhibition of human ERG by flux-based assay.

Sequence of Voltage-gated inwardly rectifying potassium channel KCNH2 (Q12809 whole entry): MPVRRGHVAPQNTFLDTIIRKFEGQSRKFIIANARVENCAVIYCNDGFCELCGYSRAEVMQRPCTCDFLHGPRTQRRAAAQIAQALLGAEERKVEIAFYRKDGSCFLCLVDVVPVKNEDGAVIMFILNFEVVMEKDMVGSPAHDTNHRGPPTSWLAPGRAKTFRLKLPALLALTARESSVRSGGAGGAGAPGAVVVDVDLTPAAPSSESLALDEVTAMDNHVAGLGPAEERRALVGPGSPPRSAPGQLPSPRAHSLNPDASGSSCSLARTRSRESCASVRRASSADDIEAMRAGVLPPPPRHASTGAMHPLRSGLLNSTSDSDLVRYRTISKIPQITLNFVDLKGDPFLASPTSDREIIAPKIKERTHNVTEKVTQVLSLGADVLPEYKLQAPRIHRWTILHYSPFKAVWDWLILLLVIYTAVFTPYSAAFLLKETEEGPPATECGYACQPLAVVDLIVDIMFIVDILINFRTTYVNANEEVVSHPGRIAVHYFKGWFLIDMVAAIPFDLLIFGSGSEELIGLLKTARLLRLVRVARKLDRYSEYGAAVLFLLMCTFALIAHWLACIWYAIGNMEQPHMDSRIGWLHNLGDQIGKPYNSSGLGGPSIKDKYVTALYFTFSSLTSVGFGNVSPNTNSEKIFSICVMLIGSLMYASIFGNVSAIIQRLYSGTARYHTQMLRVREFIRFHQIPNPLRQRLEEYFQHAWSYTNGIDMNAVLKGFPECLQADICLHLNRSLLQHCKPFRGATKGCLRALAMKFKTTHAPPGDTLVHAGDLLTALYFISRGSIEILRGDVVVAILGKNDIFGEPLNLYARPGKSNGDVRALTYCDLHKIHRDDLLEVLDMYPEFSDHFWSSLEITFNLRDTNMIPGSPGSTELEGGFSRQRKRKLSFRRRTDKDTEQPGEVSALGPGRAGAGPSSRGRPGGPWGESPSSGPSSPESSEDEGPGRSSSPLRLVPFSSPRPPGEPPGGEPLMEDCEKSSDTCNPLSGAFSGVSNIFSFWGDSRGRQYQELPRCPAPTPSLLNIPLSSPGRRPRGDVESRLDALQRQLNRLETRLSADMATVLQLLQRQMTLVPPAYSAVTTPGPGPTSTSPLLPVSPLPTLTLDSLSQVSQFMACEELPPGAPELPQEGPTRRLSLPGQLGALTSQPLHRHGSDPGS
Sequence of Non-receptor tyrosine-protein kinase TYK2 (P29597 whole entry): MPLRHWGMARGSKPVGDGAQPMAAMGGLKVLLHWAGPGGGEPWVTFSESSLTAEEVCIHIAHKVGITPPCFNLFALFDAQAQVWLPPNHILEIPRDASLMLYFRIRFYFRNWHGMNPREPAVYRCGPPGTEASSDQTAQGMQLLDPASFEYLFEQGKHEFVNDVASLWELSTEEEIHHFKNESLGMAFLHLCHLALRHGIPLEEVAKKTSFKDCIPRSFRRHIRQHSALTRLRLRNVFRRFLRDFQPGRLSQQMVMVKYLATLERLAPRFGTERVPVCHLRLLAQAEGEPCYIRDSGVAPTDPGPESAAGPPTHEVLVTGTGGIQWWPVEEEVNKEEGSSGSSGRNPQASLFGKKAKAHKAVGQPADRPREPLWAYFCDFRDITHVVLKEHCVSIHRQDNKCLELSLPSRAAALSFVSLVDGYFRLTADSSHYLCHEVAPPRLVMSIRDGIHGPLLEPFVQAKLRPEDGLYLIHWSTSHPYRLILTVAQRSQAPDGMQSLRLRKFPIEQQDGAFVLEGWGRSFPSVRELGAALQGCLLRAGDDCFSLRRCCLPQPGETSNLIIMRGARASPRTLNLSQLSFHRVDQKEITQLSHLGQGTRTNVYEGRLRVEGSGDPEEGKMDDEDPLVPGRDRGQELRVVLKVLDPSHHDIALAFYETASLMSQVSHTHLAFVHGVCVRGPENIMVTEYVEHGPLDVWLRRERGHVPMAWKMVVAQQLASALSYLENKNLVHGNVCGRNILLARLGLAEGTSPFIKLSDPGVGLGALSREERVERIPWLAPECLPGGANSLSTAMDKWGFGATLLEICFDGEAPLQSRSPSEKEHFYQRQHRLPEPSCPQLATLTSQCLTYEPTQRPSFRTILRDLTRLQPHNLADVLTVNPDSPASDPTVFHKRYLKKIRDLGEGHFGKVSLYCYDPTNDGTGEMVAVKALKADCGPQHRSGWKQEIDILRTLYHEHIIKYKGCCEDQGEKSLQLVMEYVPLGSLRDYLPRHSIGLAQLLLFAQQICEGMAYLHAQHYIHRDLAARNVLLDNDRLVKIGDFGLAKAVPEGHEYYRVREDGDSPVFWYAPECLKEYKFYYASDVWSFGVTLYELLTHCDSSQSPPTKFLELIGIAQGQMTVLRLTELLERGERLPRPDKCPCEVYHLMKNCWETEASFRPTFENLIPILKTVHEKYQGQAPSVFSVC
Sequence of Tyrosine-protein kinase JAK1 (P23458 whole entry): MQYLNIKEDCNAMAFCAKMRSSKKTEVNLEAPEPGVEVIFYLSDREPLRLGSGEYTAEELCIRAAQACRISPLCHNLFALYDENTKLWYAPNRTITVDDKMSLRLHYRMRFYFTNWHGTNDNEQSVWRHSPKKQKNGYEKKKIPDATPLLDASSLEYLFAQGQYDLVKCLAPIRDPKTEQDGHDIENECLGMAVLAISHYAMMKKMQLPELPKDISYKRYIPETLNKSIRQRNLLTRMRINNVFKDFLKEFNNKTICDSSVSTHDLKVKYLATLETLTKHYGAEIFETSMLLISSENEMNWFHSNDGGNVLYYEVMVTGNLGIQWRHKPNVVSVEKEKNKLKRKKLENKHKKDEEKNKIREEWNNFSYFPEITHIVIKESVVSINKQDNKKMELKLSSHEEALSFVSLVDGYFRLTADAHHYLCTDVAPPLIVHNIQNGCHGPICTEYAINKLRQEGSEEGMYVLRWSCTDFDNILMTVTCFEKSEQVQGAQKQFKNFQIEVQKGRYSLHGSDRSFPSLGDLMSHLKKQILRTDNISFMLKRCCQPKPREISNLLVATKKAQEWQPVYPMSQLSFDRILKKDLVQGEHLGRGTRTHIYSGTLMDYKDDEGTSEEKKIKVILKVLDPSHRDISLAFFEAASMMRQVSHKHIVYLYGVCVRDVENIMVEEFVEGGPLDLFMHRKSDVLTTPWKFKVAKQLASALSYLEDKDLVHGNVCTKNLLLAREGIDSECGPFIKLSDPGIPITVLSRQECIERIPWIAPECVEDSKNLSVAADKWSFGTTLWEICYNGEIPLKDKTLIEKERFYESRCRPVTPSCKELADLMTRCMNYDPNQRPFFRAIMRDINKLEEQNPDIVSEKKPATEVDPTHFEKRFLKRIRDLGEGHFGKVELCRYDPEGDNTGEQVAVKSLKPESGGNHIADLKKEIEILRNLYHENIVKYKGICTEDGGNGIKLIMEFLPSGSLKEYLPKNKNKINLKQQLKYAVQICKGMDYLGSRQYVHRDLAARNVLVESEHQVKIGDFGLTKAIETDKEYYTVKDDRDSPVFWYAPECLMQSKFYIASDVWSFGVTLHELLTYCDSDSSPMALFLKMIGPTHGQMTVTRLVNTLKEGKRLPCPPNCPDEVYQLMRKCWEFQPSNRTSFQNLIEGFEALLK
Sequence of JAK3/JAK1 (P23458 whole entry, one chain of several): as the sequence (P23458 whole entry) above
Sequence of Tyrosine-protein kinase JAK2 (O60674 whole entry): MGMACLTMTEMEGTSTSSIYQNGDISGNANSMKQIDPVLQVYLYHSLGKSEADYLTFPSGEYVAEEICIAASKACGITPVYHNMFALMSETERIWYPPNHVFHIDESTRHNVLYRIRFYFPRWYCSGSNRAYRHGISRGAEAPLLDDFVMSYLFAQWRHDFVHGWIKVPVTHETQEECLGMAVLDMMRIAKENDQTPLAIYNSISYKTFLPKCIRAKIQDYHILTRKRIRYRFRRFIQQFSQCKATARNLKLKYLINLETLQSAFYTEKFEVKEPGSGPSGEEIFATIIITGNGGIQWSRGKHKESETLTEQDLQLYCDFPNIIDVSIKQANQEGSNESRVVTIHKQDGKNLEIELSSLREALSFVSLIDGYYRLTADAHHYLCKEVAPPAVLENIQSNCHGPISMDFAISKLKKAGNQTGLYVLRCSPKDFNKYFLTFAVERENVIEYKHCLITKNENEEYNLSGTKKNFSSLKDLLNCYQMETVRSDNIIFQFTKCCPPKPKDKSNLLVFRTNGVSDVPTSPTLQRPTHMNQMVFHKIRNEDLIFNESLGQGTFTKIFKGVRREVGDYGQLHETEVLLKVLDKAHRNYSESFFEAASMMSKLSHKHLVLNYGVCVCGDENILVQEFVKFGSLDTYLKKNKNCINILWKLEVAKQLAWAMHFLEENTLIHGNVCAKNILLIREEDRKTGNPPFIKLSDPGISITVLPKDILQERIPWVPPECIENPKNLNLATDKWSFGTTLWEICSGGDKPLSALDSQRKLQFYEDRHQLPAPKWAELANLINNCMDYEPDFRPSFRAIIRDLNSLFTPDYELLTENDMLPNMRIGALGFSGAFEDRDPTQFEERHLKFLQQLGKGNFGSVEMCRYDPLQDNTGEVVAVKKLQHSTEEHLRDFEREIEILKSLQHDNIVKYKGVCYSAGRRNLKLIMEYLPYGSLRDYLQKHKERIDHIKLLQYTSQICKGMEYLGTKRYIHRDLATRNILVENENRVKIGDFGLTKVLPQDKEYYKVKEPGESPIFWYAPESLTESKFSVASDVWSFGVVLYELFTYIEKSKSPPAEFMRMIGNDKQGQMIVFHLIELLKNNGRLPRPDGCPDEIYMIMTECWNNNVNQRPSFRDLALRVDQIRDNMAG

A word on the IC50: it is the point on the concentration scale where inhibition reaches its midpoint. For the compound `COc1ccccc1-c1cc2c(N[C@@H]3CC[C@](C)(N)C3(C)C)c(C(N)=O)cnn2c1`, the IC50 came to 0.5 nM in experiment [1]; 21 nM in experiment [2]; 1.3 nM in experiment [3]; 20 nM in experiment [4]; 680 nM in experiment [6]; 7500 nM in experiment [7]. The “Ratio IC50” value in experiment [5] is given as 562.

Turning to `CC1(C)[C@H](Nc2c(C(N)=O)cnn3cc(-c4cccnc4)cc23)CC[C@]1(C)N`, the IC50 in experiment [2] turned out to be 34 nM; in experiment [3] it was 0.6 nM; in experiment [4], 11 nM; in experiment [6], 110 nM.

Turning to `CC1(C)[C@H](Nc2c(C(N)=O)cnn3cc(-c4ccccc4F)cc23)CC[C@]1(C)N`, the IC50 is 1.2 nM in experiment [1]; 15 nM in experiment [2]; 1.5 nM in experiment [3]; 17 nM in experiment [4]; 630 nM in experiment [6].

With `CC1(C)[C@H](Nc2c(C(N)=O)cnn3cc(-c4ccc(C#N)nc4)cc23)CC[C@]1(C)N`, the IC50 in experiment [1] was found to be 6.6 nM; in experiment [2], 47 nM; in experiment [3], 1 nM; in experiment [4] it was 29 nM; in experiment [6] it was 430 nM.

As for `CC1(C)[C@H](Nc2c(C(N)=O)cnn3cc(-c4cncc(F)c4)cc23)CC[C@]1(C)N`, the IC50 came to 6.6 nM in experiment [1]; 60 nM in experiment [2]; 1.9 nM in experiment [3]; 44 nM in experiment [4]; 220 nM in experiment [6].

As for `Cc1ccc(-c2cc3c(N[C@@H]4CC[C@](C)(N)C4(C)C)c(C(N)=O)cnn3c2)cc1`, the IC50 in experiment [1] is 0.8 nM; in experiment [2], 8.6 nM; in experiment [3] it was 0.7 nM; in experiment [4], 14 nM; in experiment [6], above 2000 nM.

Regarding `CC1(C)[C@H](Nc2c(C(N)=O)cnn3cc(-c4ccccc4C#N)cc23)CC[C@]1(C)N`, the IC50 in experiment [1] stood at 1.6 nM; in experiment [2] it was 34 nM; in experiment [3], 1.9 nM; in experiment [4], 25 nM; in experiment [6] it was 500 nM. The “Ratio IC50” value in experiment [5] turned out to be 240.

As for `Cc1cnccc1-c1cc2c(N[C@@H]3CC[C@](C)(N)C3(C)C)c(C(N)=O)cnn2c1`, the IC50 in experiment [1] was 2.4 nM; in experiment [2], 29 nM; in experiment [3], 4 nM; in experiment [4], 19 nM; in experiment [6], 75 nM; in experiment [7], above 80000 nM. Moreover, the “Ratio IC50” value in experiment [5] is recorded as 250.

`COc1cc(-c2cc3c(N[C@@H]4CC[C@](C)(N)C4(C)C)c(C(N)=O)cnn3c2)ccn1`: the IC50 in experiment [1] is 2.3 nM; in experiment [2] it was 36 nM; in experiment [3] it was 2.8 nM; in experiment [4] it was 36 nM; in experiment [6], 350 nM. In experiment [5], the “Ratio IC50” value is recorded as 86.

For the compound `Cc1cc(-c2cc3c(N[C@@H]4CC[C@](C)(N)C4(C)C)c(C(N)=O)cnn3c2)ccn1`, the IC50 in experiment [1] came to 0.6 nM; in experiment [2], 5.7 nM; in experiment [3] it was 0.6 nM; in experiment [4], 3.5 nM; in experiment [6] it was 55 nM; in experiment [7] it was 30000 nM. The “Ratio IC50” value in experiment [5] stood at 8.

For the compound `CCOc1ccc(-c2cc3c(N[C@@H]4CC[C@](C)(N)C4(C)C)c(C(N)=O)cnn3c2)cn1`, the IC50 in experiment [1] came to 4 nM; in experiment [2], 38 nM; in experiment [3], 1.1 nM; in experiment [4] it was 30 nM; in experiment [6], 800 nM; in experiment [7], 17000 nM. In addition, in experiment [5], the “Ratio IC50” value is listed as 120.

For the compound `CC1(C)[C@H](Nc2c(C(N)=O)cnn3cc(-c4ccc(C#N)cc4)cc23)CC[C@]1(C)N`, the IC50 in experiment [1] amounted to 0.9 nM; in experiment [2], 8.6 nM; in experiment [3] it was 1 nM; in experiment [4] it was 7.3 nM; in experiment [6] it was 66 nM.

Consider `CC1(C)[C@H](Nc2c(C(N)=O)cnn3cc(-c4ccc(Cl)cc4)cc23)CC[C@]1(C)N`, for which the IC50 is 0.9 nM in experiment [1], 10 nM in experiment [2], 0.8 nM in experiment [3] and 15 nM in experiment [4].

Regarding `Cc1ccncc1-c1cc2c(N[C@@H]3CC[C@](C)(N)C3(C)C)c(C(N)=O)cnn2c1`, the IC50 in experiment [2] amounted to 180 nM; in experiment [4] it was 140 nM; in experiment [6] it was 97 nM; in experiment [7] it was 18000 nM. In experiment [5], the “Ratio IC50” value is 120.

With `Cc1ccc(-c2cc3c(N[C@@H]4CC[C@](C)(N)C4(C)C)c(C(N)=O)cnn3c2)cn1`, the IC50 in experiment [1] came out at 2 nM; in experiment [2], 29 nM; in experiment [3], 0.9 nM; in experiment [4] it was 22 nM; in experiment [6] it was 84 nM; in experiment [7], 8000 nM. Further, in experiment [5], the “Ratio IC50” value is on record as 80.

On to `CC1(C)[C@H](Nc2c(C(N)=O)cnn3cc(-c4cccc(F)c4)cc23)CC[C@]1(C)N`, for which the IC50 is 1.2 nM in experiment [1]; 22 nM in experiment [2]; 1.6 nM in experiment [3]; 22 nM in experiment [4]; above 1000 nM in experiment [6]; 7600 nM in experiment [7].

Regarding `CC1(C)[C@H](Nc2c(C(N)=O)cnn3cc(-c4ccccc4Cl)cc23)CC[C@]1(C)N`, the IC50 in experiment [1] was 0.8 nM; in experiment [2] it was 47 nM; in experiment [3], 1.3 nM; in experiment [4] it was 27 nM; in experiment [6], above 1000 nM.

As for `CC1(C)[C@H](Nc2c(C(N)=O)cnn3cc(-c4ccnc(F)c4)cc23)CC[C@]1(C)N`, the IC50 in experiment [1] was found to be 3.3 nM; in experiment [2], 59 nM; in experiment [3] it was 1.6 nM; in experiment [4] it was 38 nM; in experiment [6], 270 nM.

Turning to `Cc1ccccc1-c1cc2c(N[C@@H]3CC[C@](C)(N)C3(C)C)c(C(N)=O)cnn2c1`, the IC50 was 0.7 nM in experiment [1]; 51 nM in experiment [2]; 1.8 nM in experiment [3]; 49 nM in experiment [4]; 490 nM in experiment [6].

Turning to `COc1ccc(-c2cc3c(N[C@@H]4CC[C@](C)(N)C4(C)C)c(C(N)=O)cnn3c2)cc1`, the IC50 was determined as 0.6 nM in experiment [1]; 9.2 nM in experiment [2]; 1.5 nM in experiment [3]; 15 nM in experiment [4]; 170 nM in experiment [6]; 13800 nM in experiment [7]. Moreover, in experiment [5], the “Ratio IC50” value is on record as 46.

Consider `CC1(C)[C@H](Nc2c(C(N)=O)cnn3cc(-c4cncnc4)cc23)CC[C@]1(C)N`, for which the IC50 is 28 nM in experiment [1]; 190 nM in experiment [2]; 11 nM in experiment [3]; 160 nM in experiment [4]; 240 nM in experiment [6]; 8500 nM in experiment [7]. Further, the “Ratio IC50” value in experiment [5] was found to be 180.

Consider `COc1cccc(-c2cc3c(N[C@@H]4CC[C@](C)(N)C4(C)C)c(C(N)=O)cnn3c2)c1`, for which the IC50 in experiment [1] came out at 1 nM; in experiment [2], 12 nM; in experiment [3] it was 0.4 nM; in experiment [4], 15 nM; in experiment [6] it was 200 nM; in experiment [7] it was 7200 nM. Also, in experiment [5], the “Ratio IC50” value turned out to be 305.

Regarding `CC1(C)[C@H](Nc2c(C(N)=O)cnn3cc(-c4ccc(F)cc4)cc23)CC[C@]1(C)N`, the IC50 came to 1.2 nM in experiment [1]; 14 nM in experiment [2]; 2.1 nM in experiment [3]; 27 nM in experiment [4]; 420 nM in experiment [6]; 10200 nM in experiment [7]. Further, the “Ratio IC50” value in experiment [5] is reported as 230.

In the case of `CC1(C)[C@H](Nc2c(C(N)=O)cnn3cc(-c4cccc(C#N)c4)cc23)CC[C@]1(C)N`, the IC50 in experiment [1] was 7.2 nM; in experiment [2], 55 nM; in experiment [3], 3.8 nM; in experiment [4], 47 nM; in experiment [6], above 1000 nM.

Regarding `CC1(C)[C@H](Nc2c(C(N)=O)cnn3cc(-c4cccc(Cl)c4)cc23)CC[C@]1(C)N`, the IC50 is 1.3 nM in experiment [1]; 20 nM in experiment [2]; 1 nM in experiment [3]; 17 nM in experiment [4]; 780 nM in experiment [6].
